Molecular target: EZH2 (Homo sapiens (Human), UniProt Q15910)
Assay: E-cadherin promoter luciferase reporter gene primary screening in 293T cells
Format: cell-based
Conditions: 293T cells treated for 24 hours, Dual-Glo luciferase; for 1 μM relative fluorescence intensity: compound 1 μM; for 3 μM relative fluorescence intensity: compound 3 μM; for 10 μM relative fluorescence intensity: compound 10 μM
Text: EZH2 suppresses the expression of downstream E-cadherin, and upon EZH2 suppression, expression of E-cadherin will increase. Based on such principle, a reporter gene expression vector was constructed using luciferase.
The amplified fragments after PCR and the PGL4.1 vector (purchased from TAKARA, Japan) were respectively subjected to enzyme digestion with SacI and BglII (purchased from TAKARA, Japan), and then purified with PCR cleanup kit (Axygen PCR cleanup kit). Subsequently, the purified and enzyme-digested PCR products was ligated to the purified and enzyme-digested PGL4.1 vector using ligase solution I (DNA Ligation Kit Ver.2.1, purchased from TAKARA, Japan), and subjected to transformation. Single clones were then screened out and subjected to sequencing, and the obtained positive plasmid containing promoter fragments of Ecadherin was named E-cadherin RE-PGL4.1.
Meanwhile, a Renilla fluorescent vector was constructed using PCDNA4.1 (purchased from Thermofisher, USA) as the template to amplify the fragment of CMV promoter. After enzymatic digestion of the amplified CMV sequences and pGL4.70 vector (purchased from Promega, USA) with KpnI and XhoI (purchased from Promega, USA), purification was conducted with PCR cleanup kit (Axygen PCR cleanup kit). Then the enzyme-digested PCR product was ligated to the enzyme-digested PGL4.70 vector using ligase solution I (DNA Ligation Kit Ver.2.1, purchased from TAKARA, Japan) and the resultant was subjected to transformation. Subsequently single clones were screened and subjected to sequencing, and the obtained plasmid that contained CMV sequence was named as Plasmid Renilla luciferase-pGL4.70. Said plasmid utilized CMV promoter to achieve high expression of Renilla luciferase, which served as the control fluorescence for the primary screening system.
The cells were firstly added with 20 μL Dual-Glo® Luciferase Assay Reagent, then incubated under room temperature for 10 minutes, and read on microplate reader Spectramax i3 (Molecular Devices, USA) to obtain the data of primary screening, which is shown in Table 1.

Sequence of EZH2 (Q15910 whole entry): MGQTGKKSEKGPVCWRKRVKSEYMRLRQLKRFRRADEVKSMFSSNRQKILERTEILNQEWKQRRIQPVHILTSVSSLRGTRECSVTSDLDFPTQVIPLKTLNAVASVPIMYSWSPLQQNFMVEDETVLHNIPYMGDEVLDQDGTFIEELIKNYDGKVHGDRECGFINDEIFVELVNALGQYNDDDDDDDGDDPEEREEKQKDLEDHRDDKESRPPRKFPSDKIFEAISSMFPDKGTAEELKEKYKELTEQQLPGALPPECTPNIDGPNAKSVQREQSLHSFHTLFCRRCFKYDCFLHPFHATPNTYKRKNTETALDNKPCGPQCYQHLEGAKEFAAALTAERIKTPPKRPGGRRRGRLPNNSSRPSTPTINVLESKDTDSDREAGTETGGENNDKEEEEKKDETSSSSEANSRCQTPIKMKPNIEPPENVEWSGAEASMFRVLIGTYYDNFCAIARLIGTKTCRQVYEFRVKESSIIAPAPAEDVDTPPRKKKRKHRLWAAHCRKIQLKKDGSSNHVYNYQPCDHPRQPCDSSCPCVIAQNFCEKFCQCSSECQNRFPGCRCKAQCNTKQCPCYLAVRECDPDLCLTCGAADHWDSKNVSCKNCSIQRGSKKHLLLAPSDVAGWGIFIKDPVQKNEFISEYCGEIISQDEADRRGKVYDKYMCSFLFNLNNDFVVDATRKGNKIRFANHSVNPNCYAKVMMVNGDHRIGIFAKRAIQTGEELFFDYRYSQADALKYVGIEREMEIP
Sequence of EZH2 (O75530 whole entry partner): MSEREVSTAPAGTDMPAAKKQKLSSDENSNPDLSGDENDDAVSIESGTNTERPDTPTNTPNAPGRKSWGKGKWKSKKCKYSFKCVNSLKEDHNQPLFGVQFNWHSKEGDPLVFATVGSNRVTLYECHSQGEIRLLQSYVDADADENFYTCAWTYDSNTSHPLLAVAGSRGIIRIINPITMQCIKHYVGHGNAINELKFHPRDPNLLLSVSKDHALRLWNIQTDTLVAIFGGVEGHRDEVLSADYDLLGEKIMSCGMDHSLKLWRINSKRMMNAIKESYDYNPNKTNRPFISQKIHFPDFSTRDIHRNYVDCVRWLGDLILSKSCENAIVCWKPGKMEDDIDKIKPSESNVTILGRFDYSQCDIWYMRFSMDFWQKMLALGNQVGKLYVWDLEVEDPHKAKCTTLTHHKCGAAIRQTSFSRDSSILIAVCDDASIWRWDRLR
Sequence of EZH2 (Q15022 whole entry partner): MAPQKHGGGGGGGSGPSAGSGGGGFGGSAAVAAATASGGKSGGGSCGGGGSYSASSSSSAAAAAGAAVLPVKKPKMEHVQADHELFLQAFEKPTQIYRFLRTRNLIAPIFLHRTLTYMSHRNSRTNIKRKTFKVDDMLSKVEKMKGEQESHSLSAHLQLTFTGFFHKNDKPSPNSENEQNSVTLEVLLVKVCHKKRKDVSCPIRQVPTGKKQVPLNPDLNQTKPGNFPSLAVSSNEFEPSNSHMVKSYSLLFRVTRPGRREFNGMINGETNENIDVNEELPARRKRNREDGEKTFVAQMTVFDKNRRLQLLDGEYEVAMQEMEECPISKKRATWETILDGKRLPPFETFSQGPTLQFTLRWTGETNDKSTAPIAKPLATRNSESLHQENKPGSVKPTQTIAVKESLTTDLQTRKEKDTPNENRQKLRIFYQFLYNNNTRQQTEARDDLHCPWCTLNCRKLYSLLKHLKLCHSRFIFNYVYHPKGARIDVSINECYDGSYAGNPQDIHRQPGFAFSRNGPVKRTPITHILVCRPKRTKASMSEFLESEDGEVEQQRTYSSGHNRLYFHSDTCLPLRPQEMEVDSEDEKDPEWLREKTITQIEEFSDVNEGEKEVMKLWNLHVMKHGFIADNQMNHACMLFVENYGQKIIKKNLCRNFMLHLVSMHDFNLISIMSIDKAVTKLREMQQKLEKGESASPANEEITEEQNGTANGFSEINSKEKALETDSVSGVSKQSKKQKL
Sequence of EZH2 (Q09028 whole entry partner): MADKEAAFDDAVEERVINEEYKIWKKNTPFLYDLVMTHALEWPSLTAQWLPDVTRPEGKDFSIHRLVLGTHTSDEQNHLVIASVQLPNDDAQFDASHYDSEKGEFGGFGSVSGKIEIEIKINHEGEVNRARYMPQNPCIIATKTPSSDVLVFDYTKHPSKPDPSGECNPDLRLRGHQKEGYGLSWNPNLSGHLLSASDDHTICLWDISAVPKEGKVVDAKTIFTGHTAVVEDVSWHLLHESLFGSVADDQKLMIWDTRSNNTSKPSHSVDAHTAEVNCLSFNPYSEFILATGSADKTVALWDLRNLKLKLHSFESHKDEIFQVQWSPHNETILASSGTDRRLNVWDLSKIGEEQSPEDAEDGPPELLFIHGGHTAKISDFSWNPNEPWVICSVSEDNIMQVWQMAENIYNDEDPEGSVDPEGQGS

**Q.** With CCN(C(=O)C1CCCC1)c1cc(-c2ccnc(N3CCN(C)CC3)c2)cc(C(=O)NCc2c(C)cc(C)[nH]c2=O)c1C [Compound 17, N-((4,6-dimethyl-2-oxo-1,2-dihydropyridin-3-yl)methyl)-3-(N-ethylcyclopentanecarboxamido)-2-methyl-5-(2-(4-methylpiperazin-1-yl)pyridin-4-yl)benzamide] as the compound, how does the “1 μM relative fluorescence intensity” value read?
**A.** 172

**Q.** And the “3 μM relative fluorescence intensity” value?
**A.** 223

**Q.** What about the “10 μM relative fluorescence intensity” value of the same compound?
**A.** 303

**Q.** Which “1 μM relative fluorescence intensity” value does the source give for CCN1CCN(Cc2ccc(-c3cc(C(=O)NCc4c(C)cc(C)[nH]c4=O)c(C)c(N(CC)C(=O)C4CCCC4)c3)cc2)CC1 [Compound 23, N-((4,6-dimethyl-2-oxo-1,2-dihydropyridin-3-yl)methyl)-5-(N-ethylcyclopentanecarboxamido)-4′-((4-ethylpiperazin-1-yl)methyl)-4-methyl-[1,1′-diphenyl]-3-carboxamide] here?
**A.** 290

**Q.** And the “3 μM relative fluorescence intensity” value?
**A.** 346

**Q.** What about the “10 μM relative fluorescence intensity” value of the same compound?
**A.** 343

**Q.** Which “1 μM relative fluorescence intensity” value does the source give for CCN(C(=O)C1CCCC1)c1cc(-c2ccc(N3CCC(N)CC3)nc2)cc(C(=O)NCc2c(C)cc(C)[nH]c2=O)c1C [Compound 37, 5-(6-(4-aminopiperidin-1-yl)pyridin-3-yl)-N-((4,6-dimethyl-2-oxo-1,2-dihydropyridin-3-yl)methyl)-3-(N-ethylcyclopentanecarboxamido)-2-methylbenzamide] here?
**A.** 163.93

**Q.** What about the “10 μM relative fluorescence intensity” value of the same compound?
**A.** 345.23

**Q.** How did the “1 μM relative fluorescence intensity” value turn out when CCN(C(=O)C1CCCC1)c1cc(-c2ccc(CN3CCNC[C@H]3CO)cc2)cc(C(=O)NCc2c(C)cc(C)[nH]c2=O)c1C [Compound 35] was run?
**A.** 83.82

**Q.** And the “10 μM relative fluorescence intensity” value?
**A.** 123.19

**Q.** How did the “1 μM relative fluorescence intensity” value turn out when CCN(C(=O)C1CCCC1)c1cc(-c2ccc(N3CCN(CC4CC4)CC3)nc2)cc(C(=O)NCc2c(C)cc(C)[nH]c2=O)c1C [Compound 15, 5-(6-(4-(cyclopropylmethyl)piperazin-1-yl)pyridin-3-yl)-N-((4,6-dimethyl-2-oxo-1,2-dihydropyridin-3-yl)methyl)-3-(N-ethylcyclopentanecarboxamido)-2-methylbenzamide] was run?
**A.** 262.61

**Q.** And the “10 μM relative fluorescence intensity” value?
**A.** 335.61

**Q.** CCN(C(=O)C1CCCC1)c1cc(-c2ccc(N3CCN(C)CC3)nc2)cc(C(=O)NCc2c(C)cc(C)[nH]c2=O)c1C [Compound 36, N-((4,6-dimethyl-2-oxo-1,2-dihydropyridin-3-yl)methyl)-3-(N-ethylcyclopentanecarboxamido)-2-methyl-5-(6-(4-methylpiperazin-1-yl)pyridin-3-yl)benzamide] was tested. Which “1 μM relative fluorescence intensity” value did it give?
**A.** 211.26

**Q.** And the “10 μM relative fluorescence intensity” value?
**A.** 312.36

**Q.** With CCN(C(=O)C1CCCC1)c1cc(-c2ccc(N3CCOCC3)cc2)cc(C(=O)NCc2c(C)cc(C)[nH]c2=O)c1C [Compound 21, N-((4,6-dimethyl-2-oxo-1,2-dihydropyridin-3-yl)methyl)-5-(N-ethylcyclopentanecarboxamido)-4-methyl-4′-morpholinyl-[1,1′-diphenyl]-3-carboxamide] as the compound, how does the “1 μM relative fluorescence intensity” value read?
**A.** 170

**Q.** What about the “3 μM relative fluorescence intensity” value of the same compound?
**A.** 225

**Q.** What about the “10 μM relative fluorescence intensity” value of the same compound?
**A.** 339

**Q.** Which results are given for CCN(C(=O)C1CCCC1)c1cc(-c2ccc(OCCCN3CCOCC3)c(F)c2)cc(C(=O)NCc2c(C)cc(C)[nH]c2=O)c1C [Compound 42, N-((4,6-dimethyl-2-oxo-1,2-dihydropyridin-3-yl)methyl)-5-(N-ethylcyclopentanecarboxamido)-3′-fluoro-4-methyl-4′-(3-morpholinopropoxy)-[1,1′-diphenyl]-3-carboxamide]?
**A.** 1 μM relative fluorescence intensity: 179.84; 10 μM relative fluorescence intensity: 234.50

**Q.** How did the “1 μM relative fluorescence intensity” value turn out when CCN(C(=O)C1CCCC1)c1cc(-c2ccc(NS(=O)(=O)C3CC3)cc2)cc(C(=O)NCc2c(C)cc(C)[nH]c2=O)c1C [Compound 28, 4′-(cyclopropanesulfonamide)-N-((4,6-dimethyl-2-oxo-1,2-dihydropyridin-3-yl)methyl)-5-(N-ethylcyclopentanecarboxamido)-4-methyl-[1,1′-diphenyl]-3-carboxamide] was run?
**A.** 163.93

**Q.** What about the “10 μM relative fluorescence intensity” value of the same compound?
**A.** 345.23

**Q.** CCN(C(=O)C1CC2C=CC1C2)c1cc(-c2ccc(CN3CCOCC3)cc2)cc(C(=O)NCc2c(C)cc(C)[nH]c2=O)c1C [Compound 60, (1R,4R)—N-(5-(((4,6-dimethyl-2-oxo-1,2-dihydropyridin-3-yl)methyl)carbamoyl-4-methyl-4′-(morpholinomethyl)-[1,1′-diphenyl]-3-yl)-N-ethylbicyclo[2.2.1]hept-5-en-2-carboxamide] was tested. Which “1 μM relative fluorescence intensity” value did it give?
**A.** 143

**Q.** What about the “3 μM relative fluorescence intensity” value of the same compound?
**A.** 140

**Q.** And the “10 μM relative fluorescence intensity” value?
**A.** 171

**Q.** With CCN(C(=O)C1CCCC1)c1cc(-c2ccc(N3CCN(C(C)C)CC3)nc2)cc(C(=O)NCc2c(C)cc(C)[nH]c2=O)c1C [Compound 18, N-((4,6-dimethyl-2-oxo-1,2-dihydropyridin-3-yl)methyl)-3-(N-ethylcyclopentanecarboxamido)-5-(6-(4-isopropylpiperazin-1-yl)pyridin-3-yl)-2-methylbenzamide] as the compound, how does the “1 μM relative fluorescence intensity” value read?
**A.** 289

**Q.** And the “3 μM relative fluorescence intensity” value?
**A.** 356

**Q.** What about the “10 μM relative fluorescence intensity” value of the same compound?
**A.** 423

**Q.** What does the source list for CCN(C(=O)C1CCCC1)c1cc(-c2ccc(OCCCN3CCOCC3)cc2F)cc(C(=O)NCc2c(C)cc(C)[nH]c2=O)c1C [Compound 44, N-((4,6-dimethyl-2-oxo-1,2-dihydropyridin-3-yl)methyl)-5-(N-ethylcyclopentanecarboxamido)-2′-fluoro-4-methyl-4′-(3-morpholinopropoxy)-[1,1′-diphenyl]-3-carboxamide]?
**A.** 1 μM relative fluorescence intensity: 181.04; 10 μM relative fluorescence intensity: 217.02

**Q.** CCN(C(=O)C1CCCC1)c1cc(C(N)=O)cc(C(=O)NCc2c(C)cc(C)[nH]c2=O)c1C [Compound 34, N^1-((4,6-dimethyl-2-oxo-1,2-dihydropyridin-3-yl)methyl)-5-(N-ethylcyclopentanecarboxamido)-6-methyl-isophthalamide] was tested. Which “1 μM relative fluorescence intensity” value did it give?
**A.** 98.36

**Q.** What about the “10 μM relative fluorescence intensity” value of the same compound?
**A.** 109.72

**Q.** CCN(C(=O)C1CCCC1)c1cc(-c2ccc(C(C)=O)s2)cc(C(=O)NCc2c(C)cc(C)[nH]c2=O)c1C [Compound 43, 5-(5-acetylthiophene-2-yl)-N-((4,6-dimethyl-2-oxo-1,2-dihydropyridin-3-yl)methyl)-3-(N-ethylcyclopentanecarboxamido)-2-methylbenzamide] was tested. Which “1 μM relative fluorescence intensity” value did it give?
**A.** 147.30

**Q.** And the “10 μM relative fluorescence intensity” value?
**A.** 235.05

**Q.** What does the source list for CCN(C(=O)C1CCCC1)c1cc(-c2ccc(C#N)c(F)c2)cc(C(=O)NCc2c(C)cc(C)[nH]c2=O)c1C [Compound 19, 4′-cyano-N-((4,6-dimethyl-2-oxo-1,2-dihydropyridin-3-yl)methyl)-5-(N-ethylcyclopentanecarboxamido)-3′-fluoro-4-methyl-[1,1′-diphenyl]-3-carboxamide]?
**A.** 1 μM relative fluorescence intensity: 189; 3 μM relative fluorescence intensity: 228; 10 μM relative fluorescence intensity: 310

**Q.** What does the source list for CCN(C(=O)C1CCCC1)c1cc(-c2ccc(Oc3ccccc3)cc2)cc(C(=O)NCc2c(C)cc(C)[nH]c2=O)c1C [Compound 41, N-((4,6-dimethyl-2-oxo-1,2-dihydropyridin-3-yl)methyl)-5-(N-ethylcyclopentanecarboxamido)-4-methyl-4′-phenoxy-[1,1′-diphenyl]-3-carboxamide]?
**A.** 1 μM relative fluorescence intensity: 156.04; 10 μM relative fluorescence intensity: 183.38

**Q.** How did the “1 μM relative fluorescence intensity” value turn out when CCN(C(=O)C1CCCC1)c1cc(-c2ccc(OCCCN3CCOCC3)cc2C)cc(C(=O)NCc2c(C)cc(C)[nH]c2=O)c1C [Compound 45, N-((4,6-dimethyl-2-oxo-1,2-dihydropyridin-3-yl)methyl)-5-(N-ethylcyclopentanecarboxamido)-2′,4-methyl-4′-(3-morpholinopropoxy)-[1,1′-diphenyl]-3-carboxamide] was run?
**A.** 189.05

**Q.** What about the “10 μM relative fluorescence intensity” value of the same compound?
**A.** 218.76

**Q.** What does the source list for CCN(C(=O)C1CCCC1)c1cc(-c2ccc(C(=O)N3CCOCC3)cc2)cc(C(=O)NCc2c(C)cc(C)[nH]c2=O)c1C [Compound 20, N-((4,6-dimethyl-2-oxo-1,2-dihydropyridin-3-yl)methyl)-5-(N-ethylcyclopentanecarboxamido)-4-methyl-4′-(morpholin-4-carbonyl)-[1,1′-diphenyl]-3-carboxamide]?
**A.** 1 μM relative fluorescence intensity: 193; 3 μM relative fluorescence intensity: 213; 10 μM relative fluorescence intensity: 227

**Q.** With CCN(C(=O)C1CCCC1)c1cc(-c2ccc(CC(=O)N3CCOCC3)cc2)cc(C(=O)NCc2c(C)cc(C)[nH]c2=O)c1C [Compound 22, N-((4,6-dimethyl-2-oxo-1,2-dihydropyridin-3-yl)methyl)-5-(N-ethylcyclopentanecarboxamido)-4-methyl-4′-(2-morpholinyl-2-oxoethyl)-[1,1′-diphenyl]-3-carboxamide] as the compound, how does the “1 μM relative fluorescence intensity” value read?
**A.** 171

**Q.** What about the “3 μM relative fluorescence intensity” value of the same compound?
**A.** 194

**Q.** And the “10 μM relative fluorescence intensity” value?
**A.** 242
